{
  "source": "patent US9663478B2",
  "about": "“Benzotriazine oxides as drugs targeting Mycobacterium tuberculosis” (priority 2011, dated 2017)",
  "key": {"[1]": {"tested_on": "Klebsiella pneumoniae ATCC 43816", "assay": "Spectrum of antimicrobial activity", "format": "cell-based"}, "[2]": {"tested_on": "Klebsiella pneumoniae ATCC 700721", "assay": "Spectrum of antimicrobial activity", "format": "cell-based"}, "[3]": {"tested_on": "Enterobacter aerogenes ATCC 29751", "assay": "Spectrum of antimicrobial activity", "format": "cell-based"}, "[4]": {"assay": "Solubility, shake-flask method", "format": "physicochemical", "settings": "0.9% saline solution at pH 7.4, triplicate", "method": "The solubility of these two compounds was measured in triplicate using the shake-flask method in a 0.9% saline solution at pH 7.4. Both 8a and 20q had acceptable solubilities of 1.35 mg/mL and 0.28 mg/mL, respectively.\nCompounds were ground into a fine powders using a mortar and pestle and added to a 25 mL glass Erlenmeyer flask with 5 mL of a 0.9% saline solution at pH 7.4. Approximately 20 mg of compound was added to each flask to ensure saturation. The flasks were then vigorously stirred using a magnetic stir bar at 25° C. for 48 hours. The samples were then filtered through a Whatman PVDF membrane (0.45 μm pore size) syringe filter. The concentration of compound in the supernatant was then measured using HPLC quantitation at the maximum absorption wavelength for each compound."}, "[5]": {"tested_on": "Enterococcus fecalis ATCC 51575", "assay": "Spectrum of antimicrobial activity", "format": "cell-based"}, "[6]": {"tested_on": "Staphylococcus aureus HA-MRSA NRS 382", "assay": "Spectrum of antimicrobial activity", "format": "cell-based"}, "[7]": {"tested_on": "Enterococcus fecalis ATCC 29212", "assay": "Spectrum of antimicrobial activity", "format": "cell-based"}, "NRP Mtb H37Rv cells": {"tested_on": "NRP Mtb H37Rv cells", "assay": "Low-oxygen recovery assay (LORA) MIC", "format": "cell-based, Mycobacterium tuberculosis", "settings": "Mycobacterium tuberculosis, H37RV, read-out: LORA MIC - ITR"}, "[8]": {"assay": "Plasma pharmacokinetics in female mice after oral administration", "format": "in vivo, mouse", "settings": "100 mg/kg", "method": "In order to validate BTOs as a new lead series for the treatment of TB, we also evaluated their systemic exposure in the mouse after oral administration. A single dose (100 mg/kg) of 8a and 20q were administered to mice in order to profile the pharmacokinetics for the BTOs (Table 7). […] The elimination half-life was for each compound was shorter than our ideal target values, but the Tmax values indicate that they are rapidly absorbed after oral administration (FIGURE).\nAll pharmacokinetic studies were performed in accordance with SRI International's animal care policies in an AAALAC and OLAW accredited facility. The procedure for the pharmacokinetics studies followed a previously described method.^55 Briefly, the plasma pharmacokinetics of selected BTO derivatives were determined in female CD1 mice after administration of a single dose (100 mg/kg) by oral gavage. Blood was collected from three mice per time point at 5, 15, 30, and 60 min and 2, 4, 6, 8, and 24 h after dose administration. Means and standard deviations were calculated for the plasma drug concentrations at each time point. Pharmacokinetic analysis was performed using non compartmental methods (WinNonlin® Professional, Version 5.2, Pharsight Corp, Mountain View, Calif.). The following parameters were calculated: time to maximum plasma concentration (Tmax), maximum plasma concentration (Cmax), maximum plasma concentration extrapoloated to time 0 (C0), area under the plasma concentration-time curve to the last time point (AUClast) and to infinity (AUCinf)."}, "[9]": {"tested_on": "Salmonella typhimurium -Hisg46 SRI Collection", "assay": "Spectrum of antimicrobial activity", "format": "cell-based"}, "[10]": {"tested_on": "Mycobacterium smegmatis ATCC 10143", "assay": "Spectrum of antimicrobial activity", "format": "cell-based"}, "[11]": {"tested_on": "Escherichia coli pKM101 SRI Collection", "assay": "Spectrum of antimicrobial activity", "format": "cell-based"}, "[12]": {"tested_on": "Acinetobacter baumannii ATCC 17978", "assay": "Spectrum of antimicrobial activity", "format": "cell-based"}, "Mtb H37Rv [13]": {"tested_on": "Mtb H37Rv", "assay": "TB MIC - ITR (UIC), Institute for Tuberculosis Research", "format": "cell-based, Mycobacterium tuberculosis", "settings": "Mycobacterium tuberculosis, H37RV; Tables 1-4; read-out: TB MIC - ITR"}, "[14]": {"tested_on": "Enterococcus faecium ATCC 19434", "assay": "Spectrum of antimicrobial activity", "format": "cell-based"}, "[15]": {"tested_on": "Staphylococcus aureus ATCC 29213", "assay": "Spectrum of antimicrobial activity", "format": "cell-based"}, "Mtb H37Rv [16]": {"tested_on": "Mtb H37Rv", "assay": "TB MIC - SRI, resazurin-based microplate assay", "format": "cell-based, Mycobacterium tuberculosis", "settings": "source CSU; SI Table 1"}, "[17]": {"tested_on": "Moraxella catarrhalis ATCC 25238", "assay": "Spectrum of antimicrobial activity", "format": "cell-based"}, "Escherichia coli BAA 201": {"tested_on": "Escherichia coli BAA 201", "assay": "Spectrum of antimicrobial activity", "format": "cell-based"}, "[18]": {"tested_on": "Acinetobacter baumannii BAA 1605", "assay": "Spectrum of antimicrobial activity", "format": "cell-based"}, "[19]": {"tested_on": "Enterobacter aerogenes SRI Collection", "assay": "Spectrum of antimicrobial activity", "format": "cell-based"}, "[20]": {"tested_on": "Pseudomonas aeruginosa ATCC 27853", "assay": "Spectrum of antimicrobial activity", "format": "cell-based"}, "[21]": {"tested_on": "Salmonella choleraesuis ATCC 13311", "assay": "Spectrum of antimicrobial activity", "format": "cell-based"}, "[22]": {"tested_on": "Escherichia coli ATCC 25922", "assay": "Spectrum of antimicrobial activity", "format": "cell-based"}, "[23]": {"tested_on": "Mycobacterium abscessus ATCC 19977", "assay": "Spectrum of antimicrobial activity", "format": "cell-based"}},
  "data": [
    {"smiles": "CCNc1n[n+]([O-])c2ccccc2[n+]1[O-]", "note": "[Compound 8a, 3-(ethylamino)benzo[e][1,2,4]triazine 1,4-dioxide]", "values": [
      {"measurement": "Antimicrobial activity, Klebsiella pneumoniae", "setting": "[1]", "value": ">32", "unit": "µg/mL"},
      {"measurement": "Antimicrobial activity, Klebsiella pneumoniae", "setting": "[2]", "value": ">32", "unit": "µg/mL"},
      {"measurement": "Antimicrobial activity, Enterobacter aerogenes", "setting": "[3]", "value": ">32", "unit": "µg/mL"},
      {"measurement": "solubility", "setting": "[4]", "value": 1350, "unit": "µg/mL"},
      {"measurement": "Antimicrobial activity, Enterococcus fecalis", "setting": "[5]", "value": 32, "unit": "µg/mL"},
      {"measurement": "Antimicrobial activity, Staphylococcus aureus HA-MRSA", "setting": "[6]", "value": "16 to 32", "unit": "µg/mL"},
      {"measurement": "Antimicrobial activity, Enterococcus fecalis", "setting": "[7]", "value": 16, "unit": "µg/mL"},
      {"measurement": "MIC", "setting": "NRP Mtb H37Rv cells", "value": 0.37, "unit": "µg/mL"},
      {"measurement": "AUCinf", "setting": "[8]; female mice, oral", "value": 6937, "unit": "ng·h/mL"},
      {"measurement": "AUClast", "setting": "[8]; female mice, oral", "value": 6578, "unit": "ng·h/mL"},
      {"measurement": "Cmax", "setting": "[8]; female mice, oral", "value": 9540, "unit": "ng/mL"},
      {"measurement": "Tmax", "setting": "[8]; female mice, oral", "value": 4.8, "unit": "min"},
      {"measurement": "t1/2", "setting": "[8]; female mice, oral", "value": 90, "unit": "min"},
      {"measurement": "plasma drug concentration at the 24 hr time point", "setting": "[8]; mouse, in vivo, po", "value": "lower than the limit of quantitation"},
      {"measurement": "Antimicrobial activity, Salmonella typhimurium -Hisg46", "setting": "[9]", "value": ">32", "unit": "µg/mL"},
      {"measurement": "Antimicrobial activity, Mycobacterium smegmatis", "setting": "[10]", "value": 5.0, "unit": "µg/mL"},
      {"measurement": "Antimicrobial activity, Escherichia coli pKM101", "setting": "[11]", "value": 32, "unit": "μg/mL"},
      {"measurement": "Antimicrobial activity, Acinetobacter baumannii", "setting": "[12]", "value": 32, "unit": "µg/mL"},
      {"measurement": "MIC", "setting": "Mtb H37Rv [13]", "value": 0.57, "unit": "µg/mL"},
      {"measurement": "Antimicrobial activity, Enterococcus faecium", "setting": "[14]", "value": ">32", "unit": "µg/mL"},
      {"measurement": "Antimicrobial activity, Staphylococcus aureus", "setting": "[15]", "value": ">32", "unit": "µg/mL"},
      {"measurement": "Antimicrobial activity, Mtb H37Rv", "setting": "Mtb H37Rv [16]", "value": 1.2, "unit": "µg/mL"},
      {"measurement": "Antimicrobial activity, Moraxella catarrhalis", "setting": "[17]", "value": 32, "unit": "µg/mL"},
      {"measurement": "Antimicrobial activity, Escherichia coli", "setting": "Escherichia coli BAA 201", "value": 16, "unit": "µg/mL"},
      {"measurement": "Antimicrobial activity, Acinetobacter baumannii", "setting": "[18]", "value": ">32", "unit": "µg/mL"},
      {"measurement": "Antimicrobial activity, Enterobacter aerogenes", "setting": "[19]", "value": ">32", "unit": "µg/mL"},
      {"measurement": "Antimicrobial activity, Pseudomonas aeruginosa", "setting": "[20]", "value": ">32", "unit": "µg/mL"},
      {"measurement": "Antimicrobial activity, Salmonella choleraesuis", "setting": "[21]", "value": 32, "unit": "µg/mL"},
      {"measurement": "Antimicrobial activity, Escherichia coli", "setting": "[22]", "value": 16, "unit": "µg/mL"},
      {"measurement": "susceptibility of M. abscessus", "setting": "[23]", "value": "resistant"},
      {"measurement": "Antimicrobial activity, Mycobacterium abscessus", "setting": "[23]; ATCC 19977", "value": ">32", "unit": "µg/mL"}
    ]}
  ]
}
